Results on 16 compounds are retold here after patent US20250092065A1, “2-(INDAZOL-5-YL)-6-(PIPERIDIN-4-YL)-1,7-NAPHTHYRIDINE DERIVATIVES AND RELATED COMPOUNDS AS MODULATORS FOR SPLICING NUCLEIC ACIDS AND FOR THE TREATMENT OF PROLIFERATIVE DISEASES” (REMIX THERAPEUTICS INC., priority 2022, published 2025).

Data set [1] relates to Target C. Kind of data set: RT-qPCR canonical junction panel assay, Target C mRNA. The data set is classed as cell-based. The following applies: Table 4, read-out: Target C IC50 (decrease in CJ mRNA levels). In outline: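 A673 or K562 cells treated with compound; CJ mRNA quantified by junction-spanning RT-qPCR probe after cDNA synthesis, normalised to GAPDH, GUSB or PPIA and DMSO (2^−ΔΔCt), scaled to set ΔCt assay window; IC50 from 4-parameter fit of CJ decrease.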
For orientation: In qPCR the cycle at which signal appears reflects the starting amount.

Data set [2] concerns HTT. The data set is described as follows: HiBiT protein abundance assay, HTT (K562 HiBiT knock-in). The data set is classed as cell-based, human. The note with it: HiBiT knock-in K562 cells, 24 hours, top dose 10 μM. In outline: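 Endogenously HiBiT-tagged K562 lines were treated for 24 h at 37 °C with 10-point 3-fold dilutions (top 10 μM final, DMSO ≤0.25%). Lytic LgBiT complementation luminescence was normalized between unmodified K562 (PC) and DMSO-treated tagged cells (NC); IC50 was interpolated at 50% from a four-parameter logistic fit.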

For data set [3], the system named is Target C. The data set is described as follows: HiBiT protein abundance assay, Target C (K562 HiBiT knock-in). The data set is classed as cell-based, human. The note with it: HiBiT knock-in K562 cells, 24 hours, top dose 10 μM. Summed up: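 K562 HiBiT knock-in cells (10000/well) were treated 24 h at 37° C with a 10-point 3-fold dilution series (top 10 μM final, ≤0.25% DMSO). HiBiT luminescence was read after lytic LgBiT detection. Percent response used unmodified K562 and DMSO-treated knock-in controls, and IC50 came from a four-parameter fit at 50% of untreated.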
In general terms: The HiBiT peptide binds its large partner to form an active luciferase.

The subject of data set [4] is K562 cells. The data set is described as follows: Cell Titer Glo 2.0 cell viability (toxicity) assay, K562. The following applies: 500 cells/well, 72 hours. In general terms: In ATP-based viability assays light output follows the ATP content of the culture.

In general, IC50 refers to the midpoint of a concentration-inhibition curve.

Structures can show the parent of a compound that is named as a salt.

For the compound `CNC(=O)c1nc(-c2cc3cn(C)nc3c(C)c2O)nc2ccc(N3CCNCC3)nc12` [Compound 533, 2-(6-hydroxy-2,7-dimethylindazol-5-yl)-N-methyl-6-(piperazin-1-yl)pyrido[3,2-d]pyrimidine-4-carboxamide], the figures for the IC50 in data set [1], in data set [2] and in data set [3] were more than 10 µM, 1 to 10 µM and 1 to 10 µM, respectively. For the same compound, in data set [4], the “Effect of Exemplary Compounds on Cell Viability, K562” value (shortened to “Effect of Exemplary Compounds”) is “B (B represents 100-1000 nM)”.
Take `CNC(=O)c1nc(-c2cc3cn(C)nc3c(C)c2O)nc2ccc(N3C[C@@H](C)N[C@@H](C)C3)nc12` [Compound 534, 6-[(3R,5S)-3,5-dimethylpiperazin-1-yl]-2-(6-hydroxy-2,7-dimethylindazol-5-yl)-N-methylpyrido[3,2-d]pyrimidine-4-carboxamide]: the 50% inhibitory concentration (IC50) in data set [1] was more than 10 µM; in data set [2], 1 to 10 µM; in data set [3], 1 to 10 µM. In addition, in data set [4], the “Effect of Exemplary Compounds” value is “B (B represents 100-1000 nM)”.
Turning to `CCNC(=O)c1nc(-c2cc3cn(C)nc3c(C)c2O)nc2ccc(N3C[C@@H](C)N[C@@H](C)C3)cc12` [Compound 535, 6-[(3R,5S)-3,5-dimethylpiperazin-1-yl]-N-ethyl-2-(6-hydroxy-2,7-dimethylindazol-5-yl)quinazoline-4-carboxamide], the half-maximal inhibitory concentration (IC50) was 1 to 10 µM in data set [1], less than 0.1 µM in data set [2] and 0.1 to 1 µM in data set [3]. For the same compound, the “Effect of Exemplary Compounds” value in data set [4] is “A (A represents <100 nM)”.
Turning to `CNC(=O)c1nc(-c2cc3cn(C)nc3c(C)c2O)nc2ccc(N3CC[C@@H](NC)C3)cc12` [Compound 536, 2-(6-hydroxy-2,7-dimethylindazol-5-yl)-N-methyl-6-[(3R)-3-(methylamino)pyrrolidin-1-yl]quinazoline-4-carboxamide], the half-maximal inhibitory concentration (IC50) in data set [1], in data set [2] and in data set [3] was less than 0.1 µM throughout. In data set [4], the “Effect of Exemplary Compounds” value was “A (A represents <100 nM)”.
Take `CNC(=O)c1nc(-c2cc3cn(C)nc3c(C)c2O)nc2ccc(N3CC[C@H](NC)C3)cc12` [Compound 537, 2-(6-hydroxy-2,7-dimethylindazol-5-yl)-N-methyl-6-[(3S)-3-(methylamino)pyrrolidin-1-yl]quinazoline-4-carboxamide]: the half-inhibitory concentration (IC50) in data set [1] is 0.1 to 1 µM; in data set [2], less than 0.1 µM; in data set [3] it was less than 0.1 µM. Besides, the “Effect of Exemplary Compounds” value in data set [4] is recorded as “A (A represents <100 nM)”.
`Cc1c(O)c(-c2nc(-c3c[nH]nn3)c3cc(N4CCNCC4)ccc3n2)cc2cn(C)nc12` [Compound 538, 2,7-dimethyl-5-[6-(piperazin-1-yl)-4-(1H-1,2,3-triazol-4-yl)quinazolin-2-yl]indazol-6-ol hydrochloride]: the IC50 in data set [1], in data set [2] and in data set [3] was 1 to 10 µM in each case. Also, in data set [4], the “Effect of Exemplary Compounds” value was “C (C represents 1000-9999 nM)”.
As for `Cc1c(O)c(-c2nc(C(=O)NC(C)C)c3cc(N4C[C@@H](C)N[C@@H](C)C4)ccc3n2)cc2cn(C)nc12` [Compound 539, 6-[(3R,5S)-3,5-dimethylpiperazin-1-yl]-2-(6-hydroxy-2,7-dimethylindazol-5-yl)-N-isopropylquinazoline-4-carboxamide], the IC50 was 0.1 to 1 µM in data set [1], less than 0.1 µM in data set [2] and less than 0.1 µM in data set [3]. Besides, the “Effect of Exemplary Compounds” value in data set [4] is listed as “A (A represents <100 nM)”.
For the compound `Cc1c(O)c(-c2nc(C(=O)NC3CCC3)c3cc(N4C[C@@H](C)N[C@@H](C)C4)ccc3n2)cc2cn(C)nc12` [Compound 540], the IC50 is more than 10 µM in data set [1], 0.1 to 1 µM in data set [2] and 0.1 to 1 µM in data set [3]. Moreover, the “Effect of Exemplary Compounds” value in data set [4] is recorded as “A (A represents <100 nM)”.
On to `Cc1c(O)c(-c2nc(-c3nn[nH]n3)c3cc(N4CCNCC4)ccc3n2)cc2cn(C)nc12` [Compound 541, 2,7-dimethyl-5-[6-(piperazin-1-yl)-4-(2H-1,2,3,4-tetrazol-5-yl)quinazolin-2-yl]indazol-6-ol], for which the IC50 in data set [1] is 1 to 10 µM; in data set [2] it was more than 10 µM; in data set [3], more than 10 µM. Also, in data set [4], the “Effect of Exemplary Compounds” value was “C (C represents 1000-9999 nM)”.
On to `C[C@@H]1CN(c2ccc3nc(-c4cc5cn(C)nc5c(F)c4O)nc(C4CC4)c3c2)C[C@H](C)N1` [Compound 542, 5-{4-cyclopropyl-6-[(3R,5S)-3,5-dimethylpiperazin-1-yl]quinazolin-2-yl}-7-fluoro-2-methylindazol-6-ol], for which the IC50 in data set [1] is more than 10 µM; in data set [2], 1 to 10 µM; in data set [3], 0.1 to 1 µM. Besides, in data set [4], the “Effect of Exemplary Compounds” value is reported as “B (B represents 100-1000 nM)”.
For `CN[C@@H]1CCN(c2ccc3nc(-c4cc5cn(C)nc5c(F)c4O)nc(C4CC4)c3c2)C1` [Compound 543, 5-{4-cyclopropyl-6-[(3R)-3-(methylamino)pyrrolidin-1-yl]quinazolin-2-yl}-7-fluoro-2-methylindazol-6-ol], the IC50 in data set [1] was 0.1 to 1 µM; in data set [2] it was less than 0.1 µM; in data set [3] it was 0.1 to 1 µM. In addition, in data set [4], the “Effect of Exemplary Compounds” value was “A (A represents <100 nM)”.
Take `Cc1cn2cc(-c3ccc4cc(N5C[C@@H](C)N[C@@H](C)C5)cc(F)c4n3)cc(F)c2n1` [Compound 544, 6-[(3R,5S)-3,5-dimethylpiperazin-1-yl]-8-fluoro-2-{8-fluoro-2-methylimidazo[1,2-a]pyridin-6-yl}quinoline]: the IC50 in data set [1] lay in the range of 1 to 10 µM; in data set [2], 0.1 to 1 µM; in data set [3] it was 0.1 to 1 µM. In data set [4], the “Effect of Exemplary Compounds” value is given as “B (B represents 100-1000 nM)”.
Regarding `CNC(=O)c1nc(-c2cc3cn(C)nc3c(C)c2O)nc2ccc(N3C[C@H](C)N[C@@H](C)C3)cc12` [Compound 652, 6-[(3S,5S)-3,5-dimethylpiperazin-1-yl]-2-(6-hydroxy-2,7-dimethylindazol-5-yl)-N-methylquinazoline-4-carboxamide], the half-inhibitory concentration (IC50) in data set [1] is more than 10 µM; in data set [2] it was less than 0.1 µM; in data set [3] it was 0.1 to 1 µM. In addition, the “Effect of Exemplary Compounds” value in data set [4] is listed as “A (A represents <100 nM)”.
On to `Cc1c(O)c(-c2ncc3cc(N4C[C@H](C)N[C@@H](C)C4)ccc3n2)cc2cn(C)nc12` [Compound 660, 5-{6-[(3S,5S)-3,5-dimethylpiperazin-1-yl]quinazolin-2-yl}-2,7-dimethylindazol-6-ol], for which the half-inhibitory concentration (IC50) was in the range of 1 to 10 µM in data set [1], 0.1 to 1 µM in data set [2] and 0.1 to 1 µM in data set [3]. Moreover, the “Effect of Exemplary Compounds” value in data set [4] is “A (A represents <100 nM)”.
For `CNC(=O)c1nc(-c2cc3cn(C)nc3c(C)c2O)nc2ccc(N3CCC(N4CCC4)CC3)cc12` [Compound 706], the figures for the 50% inhibitory concentration (IC50) in data set [1], in data set [2] and in data set [3] were more than 10 µM, 0.1 to 1 µM and 0.1 to 1 µM, respectively. In data set [4], the “Effect of Exemplary Compounds” value was “A (A represents <100 nM)”.
Consider `C[C@@H]1CN(c2ccc3nc(-c4cc5cn(C)nc5c(F)c4O)nc(C#N)c3c2)C[C@H](C)N1` [Compound 707, 6-[(3R,5S)-3,5-dimethylpiperazin-1-yl]-2-(7-fluoro-6-hydroxy-2-methylindazol-5-yl) quinazoline-4-carbonitrile], for which the IC50 in data set [1], in data set [2] and in data set [3] was 0.1 to 1 µM in each case. Further, the “Effect of Exemplary Compounds” value in data set [4] was “A (A represents <100 nM)”.
